row,Structure (SMILES),melting point [°C]
1,COc1cc(C#N)c(N=C(C)N(C)C)cc1OC,94 to 96
2,Cc1cc(Br)cnc1CCCCNC1=NS(=O)(=O)c2cc(S(N)(=O)=O)ccc21,219 to 221
3,O=C1COc2ccc(CCCCCc3ccc4c(c3)NC(=O)CO4)cc2N1,189 to 190
4,CN(C)CCc1ccc(N)c2[nH]ncc12,125
5,O=S1NC(Cc2coc3ccccc23)=NO1 (centres undefined),138 to 140
6,O=C(O)CCc1nn(-c2ccc(F)cc2)c2c1CCCC2,128 to 129
7,OCc1ccc(OCCCCCSc2ccnc3cc(C(F)(F)F)ccc23)cc1,98.3
8,Cc1cc(C)c(C(=O)P(=S)(C(=O)c2c(C)cc(C)cc2C)c2ccccc2)c(C)c1,123
9,CCOC(=O)COc1c2ccccc2cc2c1c(C(=O)C(N)=O)c(CC)n2Cc1ccccc1,130 to 131
10,C=CCN(CCC)C1COc2cccc(O)c2C1 (centres undefined),78 to 80
11,CCOc1ccc([N+](=O)[O-])c(Nc2ccc(OC)cc2)c1,109
12,COC(=O)C=Cc1ccc(-c2ccc(C=CC(=O)OC)cc2C(F)(F)F)c(C(F)(F)F)c1,158 to 161
13,COc1ccc(C(=O)c2c(F)cccc2F)c(O)c1,71 to 72
14,O=C(O)CCSC1c2ccc(SCC(=O)O)cc2COc2ccc(OCc3ccc4ccc(Cl)cc4n3)cc21 (centres undefined),165 to 167
15,COc1cccc(CNc2ncnc3c2sc2nc(N4CCOCC4)c4c(c23)CC(C)(C)CC4)c1OC,219 to 220
16,CCCCCCCCCCOc1ccc(OCc2ccccc2)c(C(=O)O)c1,63 to 65
17,Cc1cc(=O)[nH]c2c1C(=O)CC(c1ccccc1Cl)C2 (centres undefined),290 to 291
18,Cc1nc2c(O)cccc2c(Cl)c1C,120
19,O=C(O)CCC(=O)c1ccc(Cl)c(S(=O)(=O)NCc2ccccc2Cl)c1,158
20,S=C(Cc1ccc(Oc2ccc(I)cc2)cc1)N1CCOCC1,123 to 127
21,CN(C)CCOc1ccc(Nc2ncc3c(n2)N(C)C(=O)N(c2c(Cl)cccc2Cl)C3)cc1,173 to 174
22,CCN1C(=O)CC(=O)N(c2ccccc2)c2cc(Cl)ccc21,220 to 222
23,CCc1nn(C2CN(C(C)C)C2)c(C(N)=O)c1NC(=O)c1cc(S(C)(=O)=O)ccc1OCC(C)C,185 to 189
24,Cn1nc(-c2cc(C(=O)O)c(Cl)cc2Cl)c(Cl)c1OC(F)F,159 to 160
25,COC(=O)c1ccc(Oc2cc3c(cc2Br)C(C)(C)CCC3(C)C)cc1,135 to 136
26,COC(=O)c1occc1NC(N)=O,208

row,Structure (SMILES),melting point [°C]
1,CC(O)C(C)N=[N+]([O-])c1ccc(O)cc1 (centres undefined),124 to 125
2,CNC(=O)ON=C1N=C(c2ccccc2)C(C)(C)S1,135 to 137
3,COC(=O)c1c(O)c(-c2cccc(C(F)(F)F)c2)nn1C,101 to 103
4,Nc1c([N+](=O)[O-])cc(F)c(F)c1Cl,86 to 88
5,CCOC(=O)c1csc(-c2cc3cccc(NS(=O)(=O)c4cccs4)c3[nH]2)n1,240 to 241
6,COc1cc2c(cc1OC)C(=O)CS[C@@H](C(=O)O)C2,223 to 224
7,C[C@@H](NC(=O)OC(C)(C)C)c1nc2c(C(F)(F)F)cccc2c(O)c1C(=O)Nc1nccs1,265
8,O=c1[nH]c2[nH]c3ccccc3c2c2ccccc12,> 310
9,CN(c1cc(OCCCS(C)(=O)=O)cc2cc(C(=O)NCC(CN3CCN(S(C)(=O)=O)CC3)SCc3ccccc3)[nH]c12)S(=O)(=O)c1ccccn1 (centres undefined),195 to 196
10,Oc1ccccc1Cc1ccc(Cl)nn1,132
11,O=C(Nc1ccccc1)c1ccc2c(c1)S(=O)(=O)NCN2C1CC1,268 to 270
12,COc1ccc(C(N)C2(C(=O)O)C3CC4CC(C3)CC2C4)cc1 (centres undefined),205 to 213
13,CC(C)N(CCCN1C(=O)/C(=N/NC(N)=O)c2ccccc21)C(C)C,173 to 175
14,COCOc1ccc(C=O)c(OCc2ccc(Cl)cc2Cl)c1C,128
15,COc1cc(Nc2c(C#N)cnc3cc4cc(OC)c(OCCN5CCN(C)CC5)cc4cc23)c(Cl)cc1C,220 to 227
16,CC12CCC(=O)C=C1CCC1C2CCC2(C)C(OC(=O)CCl)CCC12 (centres undefined),125 to 126
17,COc1noc2c1CN(C(C)=O)CC2,40 to 42
18,CN1Cc2c(-c3nc(C4CC4)no3)ncn2-c2cccc(Br)c2C1=O,187 to 189
19,O=C(O)C1(CCc2ccc(Cl)cc2)CCN(CC2CC2)CC1,250
20,COc1ccc(-n2cnc3ccc(-c4nnc(CCc5cccc(F)c5)o4)cc32)cc1,145 to 147
21,NC1=C2C=NN=C2N(c2ccc([N+](=O)[O-])cc2)CN1c1ccccc1,348 to 349
22,CC(C)(C)OC(=O)Nc1ccc(F)c(F)c1,135 to 137
23,CCC(C(N)=O)N(Cc1ccc2nc(NCCCN3CCOCC3)n(Cc3nc(C)ccc3OC)c2c1)c1cc(C)cc(C)c1 (centres undefined),130
24,COc1ccc(OC)c2nc(Cl)c(CCCl)cc12,108 to 110
25,"COc1cccc2c1C13CCN(C)C(C2)C1CCC(=O)C3 (single isomer, unassigned; (-))",145 to 147

# The next lines start with the values.
row,melting point [°C],Structure (SMILES)
1,104 to 108,Cc1nc(NCCCO)c([N+](=O)[O-])c(N2CCc3ccccc3CC2)n1
2,160 to 163,Ic1ccc2c3c(cccc13)C(=NCc1ccccc1)N2
3,238 to 241,CCCCc1ncc(C=C2C(=O)Nc3ccc(Cl)cc32)n1Cc1ccc(C(=O)OC)cc1
4,66,O=[N+]([O-])c1cc([C@@H]2CO2)ccc1OCc1ccccc1
5,134 to 137,"CCCCCC(NS(=O)(=O)c1ccc(Cl)cc1)c1ccc(CCCC(=O)O)cc1 (single isomer, unassigned; (-))"
6,48 to 50,O=C(Oc1ccc(F)cc1)c1ccccc1
7,198 to 200,CNC(=O)Nc1nnc(C(F)F)s1
8,92 to 100,CCc1oc2ccccc2c1C(=O)N(Cc1ccccc1)Cc1ccc2c(Br)c(OCC#N)ccc2c1
9,156 to 157,FC(F)(F)c1cccnc1-n1c(/C=C/c2ccccc2)nc2ccccc21
10,158 to 159,NC(=O)COc1ccc(CCNS(=O)(=O)c2ccc(Cl)cc2)cc1
11,69.5 to 70,CC(=O)Oc1ccc(CCc2cccc(OC(C)=O)c2)cc1
12,235 to 237,COc1ccc(-c2c3c(c(C)c4ccc(OC)cc24)C(=O)NC3)cc1
13,195 to 202,O=C1NCC(CN2C(=O)C3(COc4cc5c(cc43)OCO5)c3ccccc32)O1 (centres undefined)
14,153 to 154,CN(C)C(=O)CC1CN=C(c2cc3cccc(N(C)S(=O)(=O)c4cccs4)c3[nH]2)S1 (centres undefined)
15,154 to 156,COc1cc2ccccc2c(C2NCCc3ccccc32)c1O (centres undefined)
16,158 to 160,CCCc1nc2c(N)nc3c(c2n1CCCCC(=O)N1CCOCC1)CCCC3
17,119 to 120,CC(C)(C)OC(=O)NCCCC(c1cc(F)ccc1F)S(=O)(=O)c1ccc(Cl)cc1 (centres undefined)
18,74 to 76,CCOC(=O)C(C(=O)OCC)C(Cc1cc(C(F)(F)F)ccc1N)c1ccccc1Cl (centres undefined)
19,205 to 206,CCOC(=O)N1c2ccccc2Sc2cc(O)c3ccccc3c21
20,255 to 258,Cc1nc2c(N)cc(S(=O)(=O)N(C)C)cc2n1C
21,232 to 235,O=c1c(C2=Nc3ccccc3S(=O)(=O)N2)c(O)c2ccccc2n1CC1CCCCC1
22,85,O=[N+]([O-])c1ccc(SNCCO)c(C(Cl)(Cl)Cl)c1
23,148 to 150,CCN(c1ccc(Cl)cc1C(N)=O)S(=O)(=O)c1ccc(C)cc1
24,118 to 120,CCOC(=O)C1(Oc2ccc(O)cc2)CCC1

row,melting point [°C],Structure (SMILES)
1,220 to 223,O=C(Nc1ccc2c(c1)CCC2)c1ccccc1C(c1ccc(O)cc1)c1ccc(O)cc1
2,282 to 285,COc1cc2c3c4c(c(-c5ccccc5Cl)cc3n(C)c2cc1OCc1ccccc1)C(=O)NC4=O
3,102 to 103,CCCCC1NC(C(=O)OC)Cc2c1[nH]c1ccccc21 (centres undefined)
4,164 to 166,O=c1c2c(nc3ccc(Br)cn13)C(=Cc1ccc(Cl)cc1Cl)CC2
5,148 to 150,CC(=O)O[C@@H]1OCC[C@@H]1NC(=O)[C@H](CC(C)C)NC(=O)c1ccc(N)cc1
6,236 to 237,CCCc1cc(=O)oc2c(C=O)c(O)cc(O)c12
7,118 to 120,Fc1ccc(C=Nn2cncn2)cc1
8,141 to 142,CCOC(=O)C1=C(C)NC(CO)=C(C(=O)OCC)C1c1cccc([N+](=O)[O-])c1 (centres undefined)
9,166 to 167,C[C@@H](n1ccn(-c2ccc(OCC(F)(F)C(F)F)cc2)c1=O)[C@](O)(CO)c1ccccc1F
10,57 to 59,O=C(O)c1ccc(S(=O)(=O)Oc2ccc(CCc3c(Cc4ccccc4)sc4ccccc34)cc2)cc1O
11,117 to 119,O=[N+]([O-])c1ccc(-c2ccc(OCCCCCCO)cc2)cc1
12,155 to 158,O=C(O)C1COc2cc(Cl)c(Cl)cc2O1 (centres undefined)
13,139 to 141,CON1CCC2(CC1)C(OCc1ccccc1)=C(c1c(C)cc(C)cc1C)C(=O)N2C
14,154,Cn1cnc(COc2nn3c(-c4ccccc4F)nnc3cc2C2(C)CCOCC2)n1
15,188 to 190,CCc1cccc(NS(=O)(=O)c2ccc(N3CCNC3=O)cc2)c1
16,146 to 148,CSc1nccc(C)c1NC(=O)CSc1nc2ccccc2o1
17,183 to 184,Cc1ccc2c(c1)C(C(=O)O)c1ccccc1CO2 (centres undefined)
18,192,Nc1cc(O)c(C(=O)O)cc1Cl
19,305 to 308,N=C(NO)c1ccc(-c2ccc(-c3nc4cc(C(=N)NO)ccc4[nH]3)cc2)nc1
20,90 to 108,Cc1cn(S(=O)(=O)c2cccc(C(C)(C)C)c2)c2ccc(C(F)(F)F)cc12
21,179 to 180,O=C(OCn1c(=O)[nH]cc(F)c1=O)c1cccnc1
22,211 to 213,O=C(/C=C/c1ccc(Br)cc1)/C=C/c1ccc(Br)cc1
23,84 to 86,CCN(CC)CCOC(=N)N1CCC(c2nsc3ccccc23)CC1
24,300,COc1ccc(-c2c(Cl)c(CN3C(=O)CCC3=O)nc3sc4c(c23)CCS(=O)(=O)C4)cc1

# — a melting point compilation (Tetko et al.; mined from patent text by program, amines drawn as free bases though some values may be those of a salt)
